From PubChem BioAssay (NCI)
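Interpolation was linear, between the two tested concentrations surrounding the appropriate level; five concentrations were tested over 48 hours in 96-well plates. The concentration for 50% growth inhibition is given as GI50. TGI denotes the concentration required for complete inhibition of growth.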

What was measured:
Assay in all cases: growth of human tumour cells (NCI), 48 h
[1] = tested on: SR leukemia
[2] = tested on: OVCAR-8 ovarian
[3] = tested on: HL-60(TB) leukemia
[4] = tested on: SW-620 colon
[5] = tested on: SNB-19 CNS
[6] = tested on: RXF 393 renal
[7] = tested on: ACHN renal
[8] = tested on: CAKI-1 renal
[9] = tested on: SK-OV-3 ovarian
[10] = tested on: MCF7 breast
[11] = tested on: DU-145 prostate
[12] = tested on: COLO 205 colon
[13] = tested on: UACC-62 melanoma
[14] = tested on: M14 melanoma
[15] = tested on: UACC-257 melanoma
[16] = tested on: U251 CNS
[17] = tested on: TK-10 renal
[18] = tested on: NCI-H226 lung
[19] = tested on: SF-268 CNS
[20] = tested on: A498 renal
[21] = tested on: HCT-15 colon
[22] = tested on: RPMI-8226 leukemia
[23] = tested on: A549 NSCLC
[24] = tested on: OVCAR-5 ovarian
[25] = tested on: HT29 colon
[26] = tested on: SK-MEL-28 melanoma
[27] = tested on: MOLT-4 leukemia
[28] = tested on: HCT-116 colon
[29] = tested on: 786-0 renal
[30] = tested on: BT-549 breast
[31] = tested on: MDA-MB-231 breast
[32] = tested on: HS 578T breast
[33] = tested on: PC-3 prostate
[34] = tested on: KM12 colon
[35] = tested on: UO-31 renal
[36] = tested on: NCI-H23 lung
[37] = tested on: CCRF-CEM leukemia
[38] = tested on: SF-539 CNS
[39] = tested on: T-47D breast
[40] = tested on: HOP-62 NSCLC
[41] = tested on: EKVX NSCLC
[42] = tested on: SN12C renal
[43] = tested on: IGROV1 ovarian
[44] = tested on: OVCAR-4 ovarian
[45] = tested on: NCI/ADR-RES ovarian
[46] = tested on: HCC-2998 colon
[47] = tested on: SK-MEL-5 melanoma
[48] = tested on: HOP-92 NSCLC
[49] = tested on: NCI-H460 lung
[50] = tested on: MALME-3M melanoma
[51] = tested on: NCI-H522 lung
[52] = tested on: SNB-75 CNS
[53] = tested on: K-562 leukemia
[54] = tested on: MDA-MB-435
[55] = tested on: SK-MEL-2 melanoma

## C#C[C@]1(O)CC[C@H]2[C@@H]3CC=C4c5sc(Nc6cc(Cl)ccn6)nc5CC[C@]4(C)[C@H]3CC[C@@]21C
[1]
  GI50: 308 nM
  TGI: 1380 nM
[2]
  GI50: 1400 nM
  TGI: 3190 nM
[3]
  GI50: 402 nM
  TGI: 2070 nM
[4]
  GI50: 1090 nM
  TGI: 2680 nM
[5]
  GI50: 1230 nM
[6]
  GI50: 124 nM
  TGI: 380 nM
[7]
  GI50: 834 nM
[8]
  GI50: 725 nM
  TGI: 2200 nM
[9]
  GI50: 663 nM
  TGI: 2170 nM
[10]
  GI50: 516 nM
  TGI: 3430 nM
[11]
  GI50: 2530 nM
  TGI: > 100000 nM
[12]
  GI50: 1660 nM
  TGI: 3420 nM
[13]
  GI50: 846 nM
  TGI: 3900 nM
[14]
  GI50: 736 nM
  TGI: 2270 nM
[15]
  GI50: 727 nM
  TGI: 2200 nM
[16]
  GI50: 425 nM
  TGI: 1670 nM
[17]
  GI50: 2210 nM
  TGI: 11400 nM
[18]
  GI50: 2140 nM
  TGI: 9840 nM
[19]
  GI50: 1450 nM
  TGI: 4550 nM
[20]
  GI50: 828 nM
  TGI: 2280 nM
[21]
  GI50: 1010 nM
  TGI: 4880 nM
[22]
  GI50: 212 nM
  TGI: 749 nM
[23]
  GI50: 1180 nM
  TGI: 2610 nM
[24]
  GI50: 2140 nM
  TGI: > 20400 nM
[25]
  GI50: 1420 nM
  TGI: 3150 nM
[26]
  GI50: 317 nM
  TGI: 1100 nM
[27]
  GI50: 321 nM
  TGI: 1950 nM
[28]
  GI50: 784 nM
  TGI: 2350 nM
[29]
  GI50: 227 nM
  TGI: 594 nM
[30]
  GI50: 627 nM
  TGI: 2360 nM
[31]
  GI50: 1580 nM
  TGI: 4610 nM
[32]
  GI50: 278 nM
  TGI: 1170 nM
[33]
  GI50: 386 nM
  TGI: 3640 nM
[34]
  GI50: 1630 nM
  TGI: 8590 nM
[35]
  GI50: 383 nM
  TGI: 1610 nM
[36]
  GI50: 1350 nM
  TGI: 4710 nM
[37]
  GI50: 463 nM
  TGI: > 22500 nM
[38]
  GI50: 214 nM
  TGI: 741 nM
[39]
  GI50: 2440 nM
  TGI: > 26300 nM
[40]
  GI50: 759 nM
  TGI: 2670 nM
[41]
  GI50: 1080 nM
  TGI: 4790 nM
[42]
  GI50: 3360 nM
  TGI: > 100000 nM
[43]
  GI50: 1780 nM
  TGI: > 21200 nM
[44]
  GI50: 2800 nM
  TGI: > 26200 nM
[45]
  GI50: 1950 nM
  TGI: 6650 nM
[46]
  GI50: 2190 nM
  TGI: 5520 nM
[47]
  GI50: 1740 nM
  TGI: 3320 nM
[48]
  GI50: 1530 nM
  TGI: 3370 nM
[49]
  GI50: 922 nM
  TGI: 2670 nM
[50]
  GI50: 663 nM
  TGI: 2100 nM
[51]
  GI50: 1830 nM
  TGI: 4080 nM
[52]
  GI50: 637 nM
[53]
  GI50: 366 nM
  TGI: 2450 nM
[54]
  GI50: 1060 nM
  TGI: 3090 nM
[55]
  GI50: 1430 nM
  TGI: 3950 nM
